Measurements reported in patent US20190293584A1, “Detection of Living Cells” (priority 2018, published 2019).
Counter-ions that a name gives are not always drawn.

Key:
M. smegmatis [1] = type: cell-based, Mycobacterium smegmatis
M. smegmatis [2] = settings: known from literature; cited from earlier work
M. tuberculosis = settings: known from literature; cited from earlier work
M. bovis BCG [3] = type: cell-based, Mycobacterium bovis BCG
M. bovis BCG [4] = settings: known from literature; cited from earlier work
[5] = tested on: cocktail of S. aureus and P. aeruginosa; test: m-EIS bulk capacitance vs time, incompletely decontaminated artificial sputum with non-mycobacterial cultures; type: cell-based, Staphylococcus aureus and Pseudomonas aeruginosa; settings: incomplete decontamination: NaOH-NALC approximately 1 minute, 0.25 N NaOH
Excerpt: All m-EIS readings were done post digestion and decontamination of the samples using the NALC-NaOH technique. In the first case, the sample has no bacteria and no changes in charge storage (bulk capacitance) should occur at any point in time. It is expected to see a flat line as there should be no change in the bulk capacitance over time. In case three, where the sample contains gram-positive and gram-negative bacteria, but no mycobacteria, all organisms should be killed during decontamination (pre-treatment) itself, and the addition of the antibiotics is not expected to cause any changes to the measured value of bulk capacitance. However, if there are mycobacteria in the sample (as in case […]), the mycobacteria should survive the decontamination process and continue to grow in the presence of Carbenicillin (case 2B). However, they will die in the presence of amikacin (case 2A). […]
The experimental protocol requires periodic (e.g., every hour) performance of an electrical “scan” of sample aliquots in a microfluidic cassette, wherein electrical impedance was measure at multiple (200) frequencies ranging from 1 kHz to 100 MHz. […] At each frequency (ω), both the in-phase and out-of-phase components of the electrical impedance, Z, (resistance (R) and reactance (X)) were measured. […]

[6] = tested on: most other non-mycobacterial species; settings: known from literature; cited from earlier work
mycobacteria = settings: known from literature; cited from earlier work

NCC[C@H](O)C(=O)N[C@@H]1C[C@H](N)[C@@H](O[C@H]2O[C@H](CN)[C@@H](O)[C@H](O)[C@H]2O)[C@H](O)[C@H]1O[C@H]1O[C@H](CO)[C@@H](O)[C@H](N)[C@H]1O [Amikacin]
time-to-detection (TTD): earliest time at which bulk capacitance is significantly lower than baseline (M. smegmatis [1]; M. smegmatis in artificial sputum after NaOH-NALC decontamination, initial loads (1 to 5)×10^5 CFU/ml, amikacin 32 μg/ml, carbenicillin 25 μg/ml): < 3 h
bactericidal effect (M. smegmatis [2]): bactericidal effects
bactericidal effect (M. tuberculosis): bactericidal effects
time-to-detection (TTD) (M. bovis BCG [3]; M. bovis BCG in artificial sputum, exposed to amikacin): < 3 h
bactericidal effect (M. bovis BCG [4]): bactericidal effects

CC1(C)S[C@@H]2[C@H](NC(=O)C(C(=O)O)c3ccccc3)C(=O)N2[C@H]1C(=O)O (some centres unmarked) [Carbenicillin, Carbenicillin disodium salt]
change of bulk capacitance over time [5]: decreases in bulk capacitance were observed over time
change of bulk capacitance (impedance values) over time (M. smegmatis [1]; Case 2: M. smegmatis, P aeruginosa and S. aureus, after decontamination): not found to show any decrease over time
activity against non-mycobacterial species [6]: bactericidal
rate of increase in bulk capacitance (M. bovis BCG [3]; Case 2, M. bovis BCG, 3 hours observation): negligible
change of bulk capacitance over time (M. bovis BCG [3]; Case 2, M. bovis BCG, duration of observation 3 hours): no growth was seen
activity against mycobacteria (mycobacteria): ineffective
